According to the supplement of paper PMC8617591:

Columns and labels:
[1] = system: Mycobacterium tuberculosis Erdman (autoluminescent); experiment: total FIC90 (Loewe) at 90% inhibition, three-drug combination (log2); higher = more antagonistic
Procedure: (§1)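 DiaMOND equipotent three-drug combination dose responses (10 doses, 1.5- or 2-fold spacing, centred on IC90) against autoluminescent M. tuberculosis Erdman in 8 in vitro models. Read-out is OD600, or luminescence for the intracellular and dormancy models, normalised to untreated wells. Hill-fit Einf, AUC25 and GRinf are potency metrics; FIC50 and FIC90 are total Loewe fractional inhibitory concentrations as log2 (negative = synergy).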

[2] = system: Mycobacterium tuberculosis Erdman (autoluminescent); experiment: AUC25, normalised area under dose response up to IC25 (three-drug combination) (fraction (0-1)); higher = more potent at low dose
Procedure: as §1

[3] = system: Mycobacterium tuberculosis Erdman (autoluminescent); experiment: GRinf, maximum normalised growth rate inhibition (three-drug combination) (unitless (-1 to 1)); higher = less effect (negative = killing)
Procedure: as §1

[4] = system: Mycobacterium tuberculosis Erdman (autoluminescent); experiment: Einf, fitted maximum growth inhibition of three-drug combination (fraction); higher = stronger maximal inhibition
Procedure: as §1

[5] = system: Mycobacterium tuberculosis Erdman (autoluminescent); experiment: total FIC50 (Loewe) at 50% inhibition, three-drug combination (log2); higher = more antagonistic
Procedure: as §1

[6] = in vitro model: acidic pH 5.7, time point: terminal (~4-5 doublings, model-specific)
[7] = in vitro model: butyrate, time point: constant (~7 days, model-specific)
[8] = in vitro model: butyrate, time point: terminal (~4-5 doublings, model-specific)
[9] = in vitro model: cholesterol 0.05 mM, time point: terminal (~4-5 doublings, model-specific)
[10] = in vitro model: cholesterol-high 0.2 mM, time point: constant (~7 days, model-specific)
[11] = in vitro model: cholesterol-high 0.2 mM, time point: terminal (~4-5 doublings, model-specific)
[12] = in vitro model: dormancy (butyrate + nitrate, low O2), time point: constant (~7 days, model-specific)
[13] = in vitro model: dormancy (butyrate + nitrate, low O2), time point: terminal (~4-5 doublings, model-specific)
[14] = in vitro model: intracellular J774, time point: constant = terminal
[15] = in vitro model: valerate, time point: terminal (~4-5 doublings, model-specific)
[16] = in vitro model: acidic pH 5.7, time point: constant (~7 days, model-specific)
[17] = in vitro model: cholesterol 0.05 mM, time point: constant (~7 days, model-specific)
[18] = in vitro model: standard 7H9 glycerol, time point: constant = terminal
[19] = in vitro model: valerate, time point: constant (~7 days, model-specific)

## COc1c(N2C[C@@H]3CCCN[C@@H]3C2)c(F)cc2c(=O)c(C(=O)O)cn(C3CC3)c12 [moxifloxacin] + O=[N+]([O-])c1cn2c(n1)OC[C@@H](OCc1ccc(OC(F)(F)F)cc1)C2 [pretomanid] + CO[C@H]1/C=C/O[C@@]2(C)Oc3c(C)c(O)c4c(O)c(c(/C=N/N5CCN(C)CC5)c(O)c4c3C2=O)NC(=O)/C(C)=C\C=C\[C@H](C)[C@H](O)[C@@H](C)[C@@H](O)[C@@H](C)[C@H](OC(C)=O)[C@@H]1C [rifampicin]
[1]; [6]
  total FIC90: 0.221
[1]; [7]
  total FIC90: 0.227
[1]; [8]
  total FIC90: 0.434
[1]; [9]
  total FIC90: -0.636
[1]; [10]
  total FIC90: 1.29
[1]; [11]
  total FIC90: 0.992
[1]; [12]
  total FIC90: 0.327
[1]; [13]
  total FIC90: 0.913
[1]; [14]
  total FIC90: 0.0806
[1]; [15]
  total FIC90: 0.41
[2]; [16]
  AUC25: 0.0717
[2]; [6]
  AUC25: 0.0448
[2]; [7]
  AUC25: 0.0923
[2]; [8]
  AUC25: 0.085
[2]; [17]
  AUC25: 0.0931
[2]; [9]
  AUC25: 0.0743
[2]; [10]
  AUC25: 0.0701
[2]; [11]
  AUC25: 0.0765
[2]; [12]
  AUC25: 0.0676
[2]; [13]
  AUC25: 0.0531
[2]; [18]
  AUC25: 0.0625
[2]; [19]
  AUC25: 0.0778
[2]; [15]
  AUC25: 0.0459
[3]; [16]
  GRinf: -0.146
[3]; [6]
  GRinf: -0.163
[3]; [7]
  GRinf: 0.0241
[3]; [8]
  GRinf: 0.00652
[3]; [17]
  GRinf: -0.000182
[3]; [9]
  GRinf: -0.0705
[3]; [10]
  GRinf: -0.468
[3]; [11]
  GRinf: -0.801
[3]; [12]
  GRinf: 0.23
[3]; [13]
  GRinf: -0.0626
[3]; [14]
  GRinf: -0.304
[3]; [18]
  GRinf: 0.162
[3]; [19]
  GRinf: 0.0569
[3]; [15]
  GRinf: 0.0455
[4]; [16]
  Einf: 0.875
[4]; [6]
  Einf: 0.974
[4]; [7]
  Einf: 0.912
[4]; [8]
  Einf: 0.962
[4]; [17]
  Einf: 0.606
[4]; [9]
  Einf: 0.858
[4]; [10]
  Einf: 0.849
[4]; [11]
  Einf: 0.996
[4]; [12]
  Einf: 0.883
[4]; [13]
  Einf: 0.965
[4]; [14]
  Einf: 0.979
[4]; [18]
  Einf: 0.883
[4]; [19]
  Einf: 0.847
[4]; [15]
  Einf: 0.924
[5]; [16]
  total FIC50: 0.484
[5]; [6]
  total FIC50: 0.652
[5]; [7]
  total FIC50: 0.355
[5]; [8]
  total FIC50: 0.25
[5]; [17]
  total FIC50: 0.67
[5]; [9]
  total FIC50: 1.14
[5]; [10]
  total FIC50: 0.869
[5]; [11]
  total FIC50: 0.954
[5]; [12]
  total FIC50: 0.689
[5]; [13]
  total FIC50: 0.662
[5]; [18]
  total FIC50: 0.125
[5]; [19]
  total FIC50: 0.325
[5]; [15]
  total FIC50: 0.877

## COc1c(N2C[C@@H]3CCCN[C@@H]3C2)c(F)cc2c(=O)c(C(=O)O)cn(C3CC3)c12 [moxifloxacin] + O=[N+]([O-])c1cn2c(n1)OC[C@@H](OCc1ccc(OC(F)(F)F)cc1)C2 [pretomanid] + NC(=O)c1cnccn1 [pyrazinamide]
[1]; [6]
  total FIC90: -0.227
[1]; [7]
  total FIC90: 1.77
[1]; [8]
  total FIC90: 0.86
[1]; [11]
  total FIC90: 0.481
[1]; [12]
  total FIC90: -0.0729
[1]; [13]
  total FIC90: 0.876
[1]; [14]
  total FIC90: 0.419
[1]; [15]
  total FIC90: -0.163
[2]; [16]
  AUC25: 0.0694
[2]; [6]
  AUC25: 0.0654
[2]; [7]
  AUC25: 0.111
[2]; [8]
  AUC25: 0.0867
[2]; [17]
  AUC25: 0.128
[2]; [9]
  AUC25: 0.102
[2]; [10]
  AUC25: 0.0858
[2]; [11]
  AUC25: 0.0802
[2]; [12]
  AUC25: 0.0852
[2]; [13]
  AUC25: 0.0687
[2]; [18]
  AUC25: 0.071
[2]; [19]
  AUC25: 0.0976
[2]; [15]
  AUC25: 0.0676
[3]; [16]
  GRinf: -0.227
[3]; [6]
  GRinf: -0.278
[3]; [7]
  GRinf: 0.0413
[3]; [8]
  GRinf: -0.0495
[3]; [17]
  GRinf: -0.295
[3]; [9]
  GRinf: -0.334
[3]; [10]
  GRinf: -0.29
[3]; [11]
  GRinf: -0.594
[3]; [12]
  GRinf: 0.199
[3]; [13]
  GRinf: -0.232
[3]; [14]
  GRinf: -0.384
[3]; [18]
  GRinf: -0.151
[3]; [19]
  GRinf: 0.0242
[3]; [15]
  GRinf: 0.00495
[4]; [16]
  Einf: 0.831
[4]; [6]
  Einf: 0.956
[4]; [7]
  Einf: 0.909
[4]; [8]
  Einf: 0.967
[4]; [17]
  Einf: 0.753
[4]; [9]
  Einf: 0.926
[4]; [10]
  Einf: 0.914
[4]; [11]
  Einf: 1
[4]; [12]
  Einf: 0.871
[4]; [13]
  Einf: 0.982
[4]; [14]
  Einf: 0.967
[4]; [18]
  Einf: 0.972
[4]; [19]
  Einf: 0.89
[4]; [15]
  Einf: 0.945
[5]; [16]
  total FIC50: -0.148
[5]; [6]
  total FIC50: 0.329
[5]; [7]
  total FIC50: 0.152
[5]; [8]
  total FIC50: 0.235
[5]; [9]
  total FIC50: 1.11
[5]; [10]
  total FIC50: 0.415
[5]; [11]
  total FIC50: 0.654
[5]; [12]
  total FIC50: 0.104
[5]; [13]
  total FIC50: 0.195
[5]; [19]
  total FIC50: -0.452
[5]; [15]
  total FIC50: 0.11
